The record followed here is paper PMC12124432, “Antimicrobial Peptide‐Peptoid Macrocycles from the Polymyxin B2 Chemical Space” (Angewandte Chemie (International Ed. in English), 2025).

Bridge positions count the residues as written; N and C are the ends. Square brackets hold non-standard residues; d marks the D form. Peptide text beside a SMILES is read from it. * marks the point of attachment. N(3-phenylpropyl)Gly = O=C(O)CNCCCc1ccccc1; Gly(NCH2CH2Ph) = O=C(O)CNCCc1ccccc1; Gly(N-2-aminoethyl) = NCCNCC(=O)O; Gly(N(CH2)3NH2) = NCCCNCC(=O)O; Gly(N-cPent) = O=C(O)CNC1CCCC1; Heptanoyl = CCCCCCC(=O)*; Nphe = O=C(O)CNCc1ccccc1; Octanoyl = CCCCCCCC(=O)*; Dab = NCC[C@H](N)C(=O)O; NPrGly = CCCNCC(=O)O

In assay [1] the test system is P. aeruginosa PAO1. In words: DiSC3(5) inner-membrane depolarization assay. The assay is classed as cell-based, Pseudomonas aeruginosa. The following applies: 2 µM DiSC3(5), mean ± SD, n = 3. As for the experimental part:
Outer Membrane (NPN) - E. coli
Figure S6. Outer membrane permeability assay with 10 μM NPN, on E. coli W3110.
13. DiSC3(5) Inner-Membrane Depolarization Assay
A single colony of P. aeruginosa PAO1 and E. coli W3110 was grown overnight with shaking […]
(150 rpm) in LB broth (5 mL) at 37 °C. 100 μL of the overnight culture was regrown in 10 […]
mL LB broth with shaking (200 rpm) to the exponential phase OD600 = 1 (10^9 CFU/mL).
Bacteria were washed once with HEPES buffer (5 mM HEPES, 5 mM glucose, pH 7.4) and […]
diluted to OD600 = 0.5. Stock solution of 10 mM of 3,3′ -Dipropylthiadicarbocyanine iodide […]
(DiSC3(5), purchased from Sigma) was prepared in DMSO. Stock solutions of 2 m g/mL of […]
the compounds were prepared in sterilized milli -Q water and diluted to the beginning […]
concentration of 128 μg/mL in 200 μL HEPES buffer. The diluted samples were added to the […]
first well of 96-well plates (black wells, flat bottom, BRAND ® GmbH Wertheim, Germany) […]
and diluted serially by 1/2. […]
DiSC3(5) in HEPES buffer. The plate was measured with a Tecan instrument Infinite M1000 […]
wavelength used was 610 nm ± 5 nm and the emission wavelength 660 nm ± 5 nm. The assay was measured in triplicate and repeated at least two times.[10,11] […]
Saturation determination. […] The fluorescence saturation of DsPMB with LPS was first determined, by titration (0.25 μM increments, up to 5 μM) of the DsPMB into a 3 μg/mL of LPS (10 mM Tris, 10 mM NaCl buffer, pH 7.4), at 37 °C. The fluorescence was recorded with a Jasco spectrofluorometer FP-8300, with the excitation at λex = 340 nm (5 nm slit width) and recorded from 420 to 650 nm. The fluorescence was recorded two minutes after each addition. Saturation was graphically determined, at a concentration of D sPMB ≈ 2.5 μM (λem = 485 nm). Each measurement was determined in triplicates.
Displacement assay. The displacement effect of the various peptides was determined by measuring the reduction of fluorescence intensity, at 37 °C. Initially, DsPMB (2.5 μM) was mixed with LPS (3 μg/mL) and let it react for 15 minutes before recording the fluorescence

Assay [2] is described as follows: Lipid vesicle (carboxyfluorescein) leakage assay. As to conditions: 10 µg mL^−1 compound, 10 mM Tris, 107 mM NaCl, pH 7.4, leakage observed after 220 s. How it is done:
Figure S4. Cytotoxicity of selected compounds against HK-2 cells. The cells were treated with the compound at the desired concentration for 24 h and the viability was determined with an Alamar blue assay. Data of three experiments performed in triplicates were pooled and represented as barplots.
10. Lipid Vesicle Leakage Assay
5(6)-carboxyfluorescein (CF) was purchased from Sigma Aldrich. Egg Yolk Phosphatidylcholine (EYPC), Egg Yolk Phosphatidylglycerol (EYPG) and a Mini-Extruder were purchased from Avanti Polar Lipids.
Vesicles preparation. Egg yolk PC or egg yolk PG thin lipid layers were prepared by evaporating a solution of 100 mg EYPC or EYPG in 4 mL MeOH/CHCl3 (1:1) on a rotary evaporator at room temperature and then dried in vacuo overnight. The resulting film was then hydrated with 2 mL CF buffer (50 mM CF, 10 mM TRIS, 10 mM NaCl, pH 7.4) for 30 min, subjected to freeze-thaw cycles (7×) and extrusion (15×) through a polycarbonate membrane (pore size 100 nm). Extra vesicular components were removed by gel filtration (Sephadex G-50) with 10 mM TRIS, 107 mM NaCl, pH 7.4 buffer. Final conditions: ca. 2.5 mM EYPC or EYPG; inside: 50 mM CF, 10 mM TRIS, 10 mM NaCl, pH 7.4 buffer; outside: 10 mM TRIS, […]
Vesicle leakage assay. EYPC or EYPG vesicle stock solutions (37.5 μL) were diluted to 3000 μL with a buffer (10 mM TRIS, 107 mM NaCl, pH 7.4) in a thermostated fluorescence cuvette (25 °C) and gently stirred (final lipid concentration ca. 10 μg/mL for both EYPG and EYPC).
The desired volume of peptide (1 or 20 mg/mL stock in MilliQ water) was added at t = 45 s to obtain final concentrations of 10 and 50 or 200 μg/mL, and CF efflux was monitored at λem 517 nm (λex 492 nm) as a function of time. Finally, 30 μL of 1.2% Triton X-100 was added to the cuvette (0.012% final concentration) at t = 240 s to reach the maximum intensity.
Fluorescence intensities were then normalized to the maximal emission intensity using I(t) = (It − I0)⁄(I∞ − I0) where I0 = It at peptide addition and I∞ = It at saturation of […]

Regarding `CCCCCCCC(=O)N(CCc1ccccc1)CC(=O)N[C@@H](CCCCN)C(=O)N[C@@H](CC(N)=O)C(=O)N[C@H]1CCNC(=O)[C@H](CCCCN)NC(=O)CN(CCCN)C(=O)[C@H](CCCCN)NC(=O)CN(CCC)C(=O)[C@H](CCCCN)NC1=O` [EB12] (Octanoyl-[Gly(NCH2CH2Ph)]KN[Dab]K[NPrGly]K[Gly(N(CH2)3NH2)]K; lactam 4-C), in assay [1], the “Inner membrane depolarization (DiSC3(5))” value is recorded as “induced a depolarization of the inner membrane like PMB2”. Moreover, the “Membrane disruptive activity, fluorescein leakage from EYPG and EYPC vesicles” value (“Membrane disruptive activity” below) in assay [2] is “low membrane disruptive activity”.
Consider `CCCCCCC(=O)N[C@H](C(=O)N(CCN)CC(=O)N(CCCc1ccccc1)CC(=O)N[C@H]1CCNC(=O)[C@H](CCCCN)NC(=O)CN(CCCN)C(=O)[C@H](CCCCN)NC(=O)CNC(=O)[C@H](CCCCN)NC1=O)C(C)C` [EB13] (Heptanoyl-V[Gly(N-2-aminoethyl)][N(3-phenylpropyl)Gly][Dab]KGK[Gly(N(CH2)3NH2)]K; lactam 4-C), for which the “Inner membrane depolarization (DiSC3(5))” value in assay [1] was “induced a depolarization of the inner membrane like PMB2”. In addition, the “Membrane disruptive activity” value in assay [2] is “low membrane disruptive activity”.
`CCCCCCCC(=O)N[C@@H](CCCCN)C(=O)N(CC(=O)N[C@@H](CCCCN)C(=O)N[C@H]1CCNC(=O)[C@H](CCCCN)NC(=O)CN(C2CCCC2)C(=O)CN(CCN)C(=O)[C@H](CCCCN)NC(=O)[C@H](CC(N)=O)NC1=O)Cc1ccccc1` [EB21] (Octanoyl-K[Nphe]K[Dab]NK[Gly(N-2-aminoethyl)][Gly(N-cPent)]K; lactam 4-C): the “Inner membrane depolarization (DiSC3(5))” value in assay [1] is “induced a depolarization of the inner membrane like PMB2”. In addition, the “Membrane disruptive activity” value in assay [2] is on record as “low membrane disruptive activity”.
